In patent publication US20220273676A1, “CHOLECALCIFEROL FOR USE IN THE TREATMENT OF CELIAC DISEASE” (ABIOGEN PHARMA S.P.A., priority 2019, published 2022):

What was measured:
[1] = test system: tight intercellular junctions (TJs); settings: preliminary studies in vivo and in vitro, Dong et al. 2018; cited from earlier work
T-cell marker (CD3) = test: Immunohistochemistry of CD3 in mucosa of small intestine of NOD mice; format: in vivo, mouse; settings: IHC
Experimental: (§1) Small intestine samples were taken from mice belonging to experimental groups 2 (pathology control) and 7 (cholecalciferol 130 μg/kg) of the experiment described in Example 1 and were processed to evaluate by immunohistochemistry the expression of three proteins: the receptor for vitamin D (VDR), the T-cell marker (CD3) which indicates lymphocyte infiltration and the protein of Zonula Occludens 1 or Zonulin-1 (Z0-1) which is usually released in serum and tissue following destruction of the intestinal epithelial barrier, in particular of the intercellular tight junctions (TJs).
(§2) The samples were washed in xylene, hydrated and washed in water with solutions of ethanol and water to scale. The recovery of the antigen was carried out in sodium citrate buffer using the standard “pressure cooker” protocol. Once the antigen recovery was completed, the samples were placed at room temperature for 10 ‘and washed twice for 2’ in PBS tween (phosphate buffer saline with tween). Non-specific sites were blocked with 200 μL of T20 starting block.
(§3) They were then dispensed on each slide, either 200 μL of solution comprising the primary antibody of interest, or 200 μL of the respective negative control. The slides were then left to incubate overnight in a humid chamber with PBS at 4° C.
(§4) After incubation, repeated washes were carried out in wash buffer at room temperature, after which the endogenous peroxidase was blocked with a 0.3% hydrogen peroxide buffer.
(§5) Subsequently, repeated washes were carried out again in wash buffer at room temperature and the secondary antibody was added, which was left to incubate for 1 hour at room temperature.
(§6) Repeated washings were then carried out again in wash buffer at room temperature. Subsequently, the DAB solution (3′,3′-Diaminobenzidine) was added, which was then blocked by washing at room temperature.
(§7) Finally, counterstaining with Meyer's hematoxylin was carried out and the reaction was stopped by washing in water.
(§8) The slides were then mounted with two drops of aqueous mounting medium and allowed to dry.
(§9) Antibody labelling in villi, crypts and goblet cells was evaluated.

[2] = test system: Zonula Occludens 1 or Zonulin-1 (Z0-1); test: Immunohistochemistry of ZO-1 in mucosa of small intestine of NOD mice; format: in vivo, mouse; settings: 130 μg/kg vs vehicle group, IHC
Experimental: as §1, §2
They were then dispensed on each slide, either 200 μL of solution comprising the primary antibody of interest, or 200 μL of the respective negative control. The slides were then left to incubate overnight in a humid chamber with PBS at 4° C. […]
as §9

NOD mice [3] = test: Histomorphometric measurement of villus length in small intestine of NOD mice; format: in vivo, mouse; settings: for Villus length: celiac NOD mice
Description: (§10) For the study, the NOD (Non Obese Diabetic) mouse was chosen as an experimental model which, when fed with a standard diet containing gluten, is able to spontaneously develop enteropathy and autoimmune disorders, with alterations of the small intestine similar to those observed. in human celiac disease.
(§11) 103 female NOD mice aged four weeks were then placed in two different enclosure rooms (one for mice intended to follow a standard diet and one for mice intended for a gluten-free diet) and allowed to acclimate for a period of at least seven days.
(§12) They were then randomly assigned to seven different experimental groups. The development of enteropathy was achieved by feeding NOD mice with a standard diet containing gluten and administering gliadin orally with a dosage of 10 μg/kg for ten consecutive days.
(§13) The seven experimental groups are represented in the following table 1.
(§14) At the end of the treatment period the mice were sacrificed. A macroscopic examination was performed and the small intestine was removed from each mouse to be subjected to microscopic examinations.
(§15) In particular, histopathological and histomorphometric examinations were carried out on sections of intestine with a thickness of 5-7 μm placed in paraffin and stained with hematoxylin-eosin.
(§16) Fifteen histomorphometric measurements of the height of the villi were then carried out from each of the five small intestine sections evaluated for each mouse. The results of the microscopic histopathological evaluation are summarized in the following table 2, which contains the four degrees of lesion previously described and the number of animals of each group presenting the various types of lesions.

[4] = test system: receptor for vitamin D (VDR); test: Immunohistochemistry of VDR in mucosa of small intestine of NOD mice; format: in vivo, mouse; settings: 130 μg/kg vs pathology control, IHC
Experimental: as §1, §2, §3, §4, §5, §6, §7, §8, §9

NOD mice [5] = test: Atrophy of the intestinal mucosa, Corazza-Villanacci classification, NOD mice; format: in vivo, mouse
Experimental: as §1
The atrophy of the intestinal mucosa was evaluated according to the Corazza-Villanacci classification.

[6] = cited from earlier work
NOD mice [7] = test: Histopathological lesion scoring (Marsh) of small intestine in NOD mouse model of celiac disease; format: in vivo; settings: for Lesion type 0, number of animals / Lesion type 1, number of animals / Lesion type 2, number of animals / Lesion type 3, number of animals: celiac NOD mice
Description: as §10, §11, §12, §13, §14, §15
The scoring system described in Marsh et al, Gut 1990 January; 31 (1): 111-4 was used, to allow comparison between groups with different degrees of inflammatory infiltration and type of lesions observed under the microscope, which provides for the following classification: • lesion type 0: normal intestinal mucosa; • lesion type 1 (infiltrative): normal morphology and architecture of the villi, higher number of intraepithelial lymphocytes; • lesion type 2 (hyperplastic): normal morphology and architecture of the villi, higher number of intraepithelial lymphocytes, hyperplasia of the glandular elements; • lesion type 3 ([…]): different degrees of atrophy of the villi with hypertrophy of the glandular crypts, superficial enterocytes with reduced height, higher number of intraepithelial lymphocytes.
as §16

[8] = 5 μg/kg/day orally once a day for 12 weeks, n = 15
[9] = 10 μg/kg/day orally once a day for 12 weeks, n = 15
[10] = 20 μg/kg/day orally once a day for 12 weeks, n = 16
[11] = 50 μg/kg/day orally once a day for 12 weeks, n = 16
[12] = 130 μg/kg/day orally once a day for 12 weeks, n = 15

SMILES: C=C1/C(=C\C=C2/CCC[C@]3(C)[C@@H]([C@H](C)CCCC(C)(C)O)CC[C@@H]23)C[C@@H](O)C[C@@H]1O [calcitriol]
- Effect on the intestinal mucosal barrier towards PT-G [1]: protective action against TJs

SMILES: C=C1CC[C@H](O)C/C1=C/C=C1\CCC[C@]2(C)[C@@H]([C@H](C)CCCC(C)C)CC[C@@H]12 [Cholecalciferol]
- CD3 expression (T-cell marker (CD3); 130 μg/kg vs pathology control): less expressed
- CD3 intensity of marking in goblet cells (T-cell marker (CD3); 130 μg/kg vs pathology control): reduction in the intensity of the marking
- CD3 signal in goblet cells compared to the control (T-cell marker (CD3); 130 μg/kg vs pathology control): reduction in the signal
- CD3 labelling of villi and crypts (T-cell marker (CD3); 130 μg/kg): unlabeled
- ZO-1 marking of villi and crypts [2]: more marked in the group treated with the vehicle
- Villus length (NOD mice [3]; [8]): 65.7 ×10 μm
- Villus length (NOD mice [3]; [9]): 71.2 ×10 μm
- Villus length (NOD mice [3]; [10]): 76.1 ×10 μm
- Villus length (NOD mice [3]; [11]): 75.0 ×10 μm
- Villus length (NOD mice [3]; [12]): 78.8 ×10 μm
- Relation between increase in the length of the villi and dose administered (NOD mice [3]; 5-130 μg/kg): dose-dependent relationship
- Villus length compared to untreated celiac controls (NOD mice [3]; all treated groups): longer than those of the untreated celiac controls
- VDR marking in crypts [4]: the same phenomenon was observed in the crypts
- VDR marking in villi [4]: greater expression of VDR
- VDR, intensity of marking of goblet cells [4]: greater intensity of marking
- VDR, number of marked goblet cells [4]: smaller number of marked cells
- Atrophy of the villi (NOD mice [5]; 130 μg/kg vs pathology control, ZO-1 slides): less marked
- Atrophy in the villi compared to vehicle treated control (NOD mice [5]; 130 μg/kg, VDR slides): reduction in atrophy
- blood half-life (T1/2) ([6]; estimated): 19 to 25 h
- functional half-life ([6]; related to slow release by adipose tissue): several weeks
- Lesion type 0, number of animals (NOD mice [7]; [8]): 0
- Lesion type 1, number of animals (NOD mice [7]; [8]): 2
- Lesion type 2, number of animals (NOD mice [7]; [8]): 13
- Lesion type 3, number of animals (NOD mice [7]; [8]): 0
- Lesion type 0, number of animals (NOD mice [7]; [9]): 0
- Lesion type 1, number of animals (NOD mice [7]; [9]): 9
- Lesion type 2, number of animals (NOD mice [7]; [9]): 4
- Lesion type 3, number of animals (NOD mice [7]; [9]): 2
- Lesion type 0, number of animals (NOD mice [7]; [10]): 0
- Lesion type 1, number of animals (NOD mice [7]; [10]): 7
- Lesion type 2, number of animals (NOD mice [7]; [10]): 4
- Lesion type 3, number of animals (NOD mice [7]; [10]): 5
- Lesion type 0, number of animals (NOD mice [7]; [11]): 3
- Lesion type 1, number of animals (NOD mice [7]; [11]): 3
- Lesion type 2, number of animals (NOD mice [7]; [11]): 9
- Lesion type 3, number of animals (NOD mice [7]; [11]): 1
- Lesion type 0, number of animals (NOD mice [7]; [12]): 3
- Lesion type 1, number of animals (NOD mice [7]; [12]): 3
- Lesion type 2, number of animals (NOD mice [7]; [12]): 6
- Lesion type 3, number of animals (NOD mice [7]; [12]): 3
- General depiction of the lesions compared to the untreated celiac mice (NOD mice [7]; all tested doses (5-130 μg/kg)): overall improvement
- General depiction of the lesions compared to the untreated celiac mice (NOD mice [7]; highest doses, repeated administrations of 50 and 130 μg/kg): significantly improved
